Source: US8134015B2, “Compound inhibiting in vivo phosphorous transport and medicine containing the same” (Kyowa Hakko Kirin Co., Ltd., priority 2003, dated 2012)

Target: T1, rat NaPi-2b (Rattus norvegicus, UniProt Q9JJ09)
T1 construct: expressed in transfected cells; host or cells: Xenopus oocytes injected with cRNA
T1 sequence (Q9JJ09 1-695): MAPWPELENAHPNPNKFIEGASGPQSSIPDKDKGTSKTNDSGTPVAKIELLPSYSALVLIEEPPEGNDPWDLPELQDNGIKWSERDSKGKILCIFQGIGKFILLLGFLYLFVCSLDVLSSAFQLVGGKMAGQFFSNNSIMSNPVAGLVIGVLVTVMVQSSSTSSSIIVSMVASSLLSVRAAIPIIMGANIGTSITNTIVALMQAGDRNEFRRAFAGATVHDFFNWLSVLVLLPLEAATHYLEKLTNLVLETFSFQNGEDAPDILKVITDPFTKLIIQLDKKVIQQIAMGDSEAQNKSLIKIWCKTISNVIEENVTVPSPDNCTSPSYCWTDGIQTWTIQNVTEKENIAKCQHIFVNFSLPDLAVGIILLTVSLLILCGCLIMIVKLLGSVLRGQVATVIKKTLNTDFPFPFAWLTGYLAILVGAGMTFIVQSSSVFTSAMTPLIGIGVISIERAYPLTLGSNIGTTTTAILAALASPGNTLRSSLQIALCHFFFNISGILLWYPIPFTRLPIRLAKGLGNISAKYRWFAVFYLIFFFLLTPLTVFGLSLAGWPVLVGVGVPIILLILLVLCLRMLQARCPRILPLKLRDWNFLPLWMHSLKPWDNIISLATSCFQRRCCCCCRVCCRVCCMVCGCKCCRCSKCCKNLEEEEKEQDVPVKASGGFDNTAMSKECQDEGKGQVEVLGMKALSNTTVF
Test: Sodium-dependent phosphate uptake of Xenopus oocytes which expressed NaPi-2b (32P)
Type: cell-based
Details: Xenopus oocytes expressing rat NaPi-2b, 32P radioactive phosphorus; read-out: IC50 (phosphate uptake inhibitory activity)
Procedure, shortened: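 Inhibition at 300 μM and 100 μM was read off one inhibition curve of 32P phosphate uptake. Uptake was measured in Xenopus oocytes cultured 2 days after injection of cRNA for cloned rat NaPi-2b.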

IC50 [µM] | Structure (SMILES)
6.12 | O=C(Nc1ccc(Br)cc1C(=O)N/N=C/c1ccc(Cl)c(C(F)(F)F)c1)c1ccc(CN2CCC(CCO)CC2)cc1 [Compound 745, N-[4-Bromo-2-(4-chloro-3-trifluoromethyl-benzylidene-hydrazinocarbonyl)-phenyl]-4-[4-(2-hydroxy-ethyl)-piperidin-1-ylmethyl]-benzamide]
16.8 | COc1cccc(/C=N/NC(=O)c2cc(Br)ccc2NC(=O)c2ccc(CN3CCC(CCO)CC3)cc2)c1 [Compound 746, N-[4-Bromo-2-(3-methoxy-benzylidene-hydrazinocarbonyl)-phenyl]-4-[4-(2-hydroxy-ethyl)-piperidin-1-ylmethyl]-benzamide]
11.9 | O=C(Nc1ccc(Br)cc1C(=O)NN=Cc1ccc(Cl)c(C(F)(F)F)c1)c1ccc(CNC(CN2CCOCC2)c2ccccc2)cc1 (stereo not drawn) [Compound 747, N-[4-Bromo-2-(4-chloro-3-trifluoromethyl-benzylidene-hydrazinocarbonyl)-phenyl]-4-[(2-morpholin-4-yl-1-phenyl-ethylamino)-methyl]-benzamide]
9.05 | CCN1CC(NCc2ccc(-c3nc4ccc(Br)cc4c(=O)n3/N=C/c3ccc(C)c(C)c3)cc2)CN1CC [Compound 749, 6-Bromo-2-{4-[(1,2-diethyl-pyrazolidin-4-ylamino)-methyl]-phenyl}-3-[(3,4-dimethyl-benzylidene)-amino]-3H-quinazolin-4-one]
< 3 | CCN1CC(NCc2ccc(C(=O)Nc3ccc(Br)cc3C(=O)N/N=C/c3ccc(C)c(C)c3)cc2)CN1CC [Compound 750, N-[4-Bromo-2-(3,4-dimethyl-benzylidene-hydrazinocarbonyl)-phenyl]-4-[(1,2-diethyl-pyrazolidin-4-ylamino)-methyl]-benzamide]
13.1 | CCN1CC(NCc2ccc(-c3nc4ccc(Br)cc4c(=O)n3/N=C/c3cccc(F)c3)cc2)CN1CC [Compound 751, 6-Bromo-2-{4-[(1,2-diethyl-pyrazolidin-4-ylamino)-methyl]-phenyl}-3-[(3-fluoro-benzylidene)-amino]-3H-quinazolin-4-one]
< 3 | CCN1CC(NCc2ccc(C(=O)Nc3ccc(Br)cc3C(=O)N/N=C/c3cccc(F)c3)cc2)CN1CC [Compound 752, N-[4-Bromo-2-(3-fluoro-benzylidene-hydrazinocarbonyl)-phenyl]-4-[(1,2-diethyl-pyrazolidin-4-ylamino)-methyl]-benzamide]
12.4 | CCN1CC(NCc2ccc(-c3nc4ccc(Br)cc4c(=O)n3/N=C/c3ccc(Cl)c(C(F)(F)F)c3)cc2)CN1CC [Compound 753, 6-Bromo-3-[(4-chloro-3-trifluoromethyl-benzylidene)-amino]-2-{4-[(1,2-diethyl-pyrazolidin-4-ylamino)-methyl]-phenyl}-3H-quinazolin-4-one]
< 3 | CCN1CC(NCc2ccc(C(=O)Nc3ccc(Br)cc3C(=O)N/N=C/c3ccc(Cl)c(C(F)(F)F)c3)cc2)CN1CC [Compound 754, N-[4-Bromo-2-(4-chloro-3-trifluoromethyl-benzylidene-hydrazinocarbonyl)-phenyl]-4-[(1,2-diethyl-pyrazolidin-4-ylamino)-methyl]-benzamide]
10.3 | CCN1CC(NCc2ccc(C(=O)Nc3ccc(Br)cc3C(=O)N/N=C/c3ccc(OC)cc3)cc2)CN1CC [Compound 756, N-[4-Bromo-2-(4-methoxy-benzylidene-hydrazinocarbonyl)-phenyl]-4-[(1,2-diethyl-pyrazolidin-4-ylamino)-methyl]-benzamide]
18.8 | Cc1ccc(/C=N/NC(=O)c2cc(Br)ccc2NC(=O)c2ccc(CNCCCN(C)c3ccccc3)cc2)cc1C [Compound 757, N-[4-Bromo-2-(3,4-dimethyl-benzylidene-hydrazinocarbonyl)-phenyl]-4-{[3-(methyl-phenyl-amino)-propylamino]-methyl}-benzamide]
11.2 | COc1cccc(/C=N/NC(=O)c2cc(Br)ccc2NC(=O)c2ccc(CNCCCN(C)c3ccccc3)cc2)c1 [Compound 763, N-[4-Bromo-2-(3-methoxy-benzylidene-hydrazinocarbonyl)-phenyl]-4-{[3-(methyl-phenyl-amino)-propylamino]-methyl}-benzamide]
5.92 | CCSCCNCc1ccc(C(=O)Nc2ccc(Br)cc2C(=O)N/N=C/c2ccc(C)c(C)c2)cc1 [Compound 764, N-[4-Bromo-2-(3,4-dimethyl-benzylidene-hydrazinocarbonyl)-phenyl]-4-[(2-ethylsulfanyl-ethylamino)-methyl]-benzamide]

Same assay, conditions: phosphate uptake, oocytes expressing rat NaPi-2b; 300 μM, determined from inhibition curve

inhibition at 300 µM [%] | Structure (SMILES)
83.7 | O=C(Nc1ccc(Br)cc1C(=O)N/N=C/c1cccc(F)c1)c1ccc(CN2CCC(CCO)CC2)cc1 [Compound 744, N-[4-Bromo-2-(3-fluoro-benzylidene-hydrazinocarbonyl)-phenyl]-4-[4-(2-hydroxy-ethyl)-piperidin-1-ylmethyl]-benzamide]
56.5 | COc1ccc(/C=N/NC(=O)c2cc(Br)ccc2NC(=O)c2ccc(CNC(CN3CCOCC3)c3ccccc3)cc2)cc1 (stereo not drawn) [Compound 748, N-[4-Bromo-2-(4-methoxy-benzylidene-hydrazinocarbonyl)-phenyl]-4-[(2-morpholin-4-yl-1-phenyl-ethylamino)-methyl]-benzamide]
67.3 | CCN1CC(NCc2ccc(-c3nc4ccc(Br)cc4c(=O)n3/N=C/c3ccc(OC)cc3)cc2)CN1CC [Compound 755, 6-Bromo-2-{4-[(1,2-diethyl-pyrazolidin-4-ylamino)-methyl]-phenyl}-3-[(4-methoxy-benzylidene)-amino]-3H-quinazolin-4-one]
58.2 | Cc1ccc(/C=N/NC(=O)c2cc(Br)ccc2NC(=O)c2ccc(CNCCCN(C)c3ccccc3)cc2)cc1 [Compound 758, N-[4-Bromo-2-(4-methyl-benzylidene-hydrazinocarbonyl)-phenyl]-4-{[3-(methyl-phenyl-amino)-propylamino]-methyl}-benzamide]
63.9 | CN(CCCNCc1ccc(C(=O)Nc2ccc(Br)cc2C(=O)N/N=C/c2ccc(F)cc2)cc1)c1ccccc1 [Compound 759, N-[4-Bromo-2-(4-fluoro-benzylidene-hydrazinocarbonyl)-phenyl]-4-{[3-(methyl-phenyl-amino)-propylamino]-methyl}-benzamide]
73.3 | CN(CCCNCc1ccc(C(=O)Nc2ccc(Br)cc2C(=O)N/N=C/c2cccc(F)c2)cc1)c1ccccc1 [Compound 760, N-[4-Bromo-2-(3-fluoro-benzylidene-hydrazinocarbonyl)-phenyl]-4-{[3-(methyl-phenyl-amino)-propylamino]-methyl}-benzamide]
46.2 | CN(CCCNCc1ccc(C(=O)Nc2ccc(Br)cc2C(=O)N/N=C/c2ccc(Cl)c(C(F)(F)F)c2)cc1)c1ccccc1 [Compound 761, N-[4-Bromo-2-(4-chloro-3-trifluoromethyl-benzylidene-hydrazinocarbonyl)-phenyl]-4-{[3-(methyl-phenyl-amino)-propylamino]-methyl}-benzamide]
52.1 | COc1ccc(/C=N/NC(=O)c2cc(Br)ccc2NC(=O)c2ccc(CNCCCN(C)c3ccccc3)cc2)cc1 [Compound 762, N-[4-Bromo-2-(4-methoxy-benzylidene-hydrazinocarbonyl)-phenyl]-4-{[3-(methyl-phenyl-amino)-propylamino]-methyl}-benzamide]
